Laboratory results from paper PMC8658016, “Identification of New Compounds with Anticonvulsant and Antinociceptive Properties in a Group of 3-substituted (2,5-dioxo-pyrrolidin-1-yl)(phenyl)-Acetamides” (International Journal of Molecular Sciences, 2021).
Where two headings read alike, the source gives them in different places.

Assays:
mice [1] = assay: Grip strength test (neuromuscular strength); type: in vivo, mouse; conditions: 30 min
Experimental: Figure 3 Acute effect of compound 14 on the neuromuscular strength in mice. Compound 14 was administered i.p. 30 min before the test. Control animals received vehicle only. Each experimental group consisted of 10 animals. Each bar represents the mean + S.E.M. grip strengths in Newtons per gram of mouse body weight (N/g). * p < 0.05 vs. the control group (one-way ANOVA, followed by Dunnett’s post hoc test, GraphPad Prism 8.0.1).
In this study, we used adult male Swiss albino mice (Kołacz, Laboratory Animals Breeding, Warszawa, Poland) license no. 106/2019 (Local Ethical Committee in Lublin). In studies assessing the acute effect of compound 14 on neuromuscular strength, body temperature, and seizure threshold, compound 14 was suspended in a 1% solution of Tween 80 and administered i.p., 30 min before the tests.
The acute effect of compound 14 on neuromuscular strength was quantified using the grip-strength apparatus (BIOSEB, Chaville, France) according to the method described elsewhere.

mice [2] = assay: Formalin test (tonic pain); type: in vivo; conditions: Mus musculus, ip, mice i.p.
Experimental: The formalin test is a commonly used model of pain also useful in screening the analgesic activity of novel compounds. A subcutaneous formalin injection results in a biphasic nociceptive response; a phase one (5 min) followed by a quiescent period (10 min) and then phase two (15 min). C-fibers’ initial and direct stimulation in phase one led to peripheral inflammation accompanied by ongoing peripheral nerve activity and central sensitization during phase two. Moreover, a formalin injection induces persistent changes similar to those observed in nerve injury and subsequent neuropathic pain [27].
The experiments were conducted on adult male Albino Swiss mice (CD-1, 18–25 g) and male Wistar rats (Krf:(WI) WU), 180–250 g) as described previously. The minimum number of animals used needed to obtain definite and normally distributed results with the utilized test. Behavioral measures were scored by trained observers, which were blind to experimental conditions. […]
Data were presented as means ± standard error of the mean (S.E.M). […] Statistically significant differences between groups were calculated using one-way analysis of variance (ANOVA) and the post hoc Dunnett’s multiple comparison test or two-way analysis of variance (ANOVA) and the post hoc Tukey’s comparison when appropriate. […]

rats = assay: Carrageenan-induced thermal hyperalgesia (radiant heat); type: in vivo, rat; conditions: 80 mg/kg
Source text: To test the anti-inflammatory activity and the potential to attenuate inflammatory pain, we tested compound 14 in the model of carrageenan-induced aseptic inflammation. In this model, the subplantar injection of carrageenan induced an edema, mechanical, and thermal hyperalgesia. […] In our opinion, the most surprising and interesting was the long-lasting anti-edematous effect. It may result from the pharmacokinetic properties of compound 14, but also from its unique mechanism. Since inflammation is one of the critical components of neuropathy, the anti-inflammatory activity of compound 14 may be a valuable and distinctive property from classical ASDs used to treat neuropathic pain [33]. […] The pain threshold reached 87.3%, 90.9%, and 89.7% of its initial value 3, 6, and 24 h after carrageenan injection, respectively. […] The initial latency for compound 14-treated animals was 8.95 ± 0.4 s. The administration of compound 14 changed the values to 127.0%, 102.0%, 79.8%, 83.8%, and 164.4% of the initial value 1, 2, 3, 6-, and 24-h following carrageenan injection, respectively.
The experiments were conducted on adult male Albino Swiss mice (CD-1, 18–25 g) and male Wistar rats (Krf:(WI) WU), 180–250 g) as described previously. The minimum number of animals used needed to obtain definite and normally distributed results with the utilized test. Behavioral measures were scored by trained observers, which were blind to experimental conditions. The following devices were used in the experiments: Analgesy Meter (37215, Ugo Basile), Plantar Test Apparatus (EFV5, Commat Ltd., Turkey), Plethysmometer (Plethysmometer 7140, Ugo Basile), Electronic von Frey unit (BIOSEB, France). All procedures were performed according to the European Union Directive of 22 September 2010 (2010/63/EU) and approved by the Local Ethics Committee for Experiments on Animals in Krakow, Poland (resolution no. 105/2016).
Figure 8 Effect of compound 14 on carrageenan-induced oedema (A), mechanical hyperalgesia (B), and thermal hyperalgesia (C), developed after subplantar injection of 1% carrageenan in rats. Data are expressed as means ± S.E.M. for 6 animals; 0—the initial value considered as the paw volume (A) or nociceptive reaction (B,C) before carrageenan administration. Statistical significance compared to vehicle-treated animals (control): * p < 0.05, ** p < 0.01, *** p < 0.001, **** p < 0.0001. Statistical analysis: two-way ANOVA post hoc Bonferroni test. Statistical significance in different time points of control group: ^# p < 0.05, ^## p < 0.01, ^### p < 0.001. Statistical analysis: one-way ANOVA, followed by Dunnett’s multiple comparison test (GraphPad Prism 8.0.1).

CN(C)C1CC(=O)N(C(C(=O)N2CCN(c3cccc(C(F)(F)F)c3)CC2)c2ccccc2)C1=O.Cl (stereo not drawn) [Compound 14, 3-(Dimethylamino)-1-(2-oxo-1-phenyl-2-(4-(3-(trifluoromethyl)phenyl)-piperazin-1-yl)ethyl)pyrrolidine-2,5-dione hydrochloride]
effect on neuromuscular strength (grip strength) (mice [1]; 30 mg/kg i.p.): did not significantly affect | effect on grip strength (mice [1]; 60 mg/kg i.p., p < 0.05 (Dunnett)): significantly decreased | ED50 (mice [2]; 0–5 min after formalin, read-out: ED50 formalin test, phase I): 85.1 mg/kg | ED50 (mice [2]; 15–30 min after formalin, read-out: ED50 formalin test, phase II): 56.1 mg/kg | latency of nociceptive response to radiant heat, % of the initial value (rats; 1 h after carrageenan): 127.0% | latency of nociceptive response to radiant heat, % of the initial value (rats; 2 h after carrageenan): 102.0% | latency of nociceptive response to radiant heat, % of the initial value (rats; 3 h after carrageenan): 79.8% | latency of nociceptive response to radiant heat, % of the initial value (rats; 6 h after carrageenan): 83.8% | latency of nociceptive response to radiant heat, % of the initial value (rats; 24 h after carrageenan): 164.4%
